Measurements: ChEMBL document CHEMBL1201862, “PubChem BioAssay data set” (2004)
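Each compound was tested at five concentrations against cells in 96-well plates for 48 hours. At the GI50, growth is halved.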 Active and inactive are the calls of the source. Cut-off read from the data, not from the text of the source: active = GI50 up to about 1.1 µM and inactive = higher.

Key:
Assay in all cases: growth of human tumour cells (NCI), 48 h
SF-268 = test system: SF-268
PC-3 = test system: PC-3
Hs-578T = test system: Hs-578T
SN12C = test system: SN12C
K562 = test system: K562
HOP-62 = test system: HOP-62
HT-29 = test system: HT-29
UACC-62 = test system: UACC-62
A498 = test system: A498
DU-145 = test system: DU-145
SR = test system: SR
Malme-3M = test system: Malme-3M
ACHN = test system: ACHN
EKVX = test system: EKVX
M14 = test system: M14
KM12 = test system: KM12
BT-549 = test system: BT-549
NCI-H23 = test system: NCI-H23
HOP-92 = test system: HOP-92

Row | SMILES | GI50 (SF-268) | GI50 (PC-3) | GI50 (Hs-578T) | GI50 (SN12C) | GI50 (K562) | GI50 (HOP-62) | GI50 (HT-29) | GI50 (UACC-62) | GI50 (A498) | GI50 (DU-145) | GI50 (SR) | GI50 (Malme-3M) | GI50 (ACHN) | GI50 (EKVX) | GI50 (M14) | GI50 (KM12) | GI50 (BT-549) | GI50 (NCI-H23) | GI50 (HOP-92)
1 | COC(=O)c1c[nH]c2c1-c1cc(C(=O)OCc3ccccc3)n(S(=O)(=O)c3ccc(C)cc3)c1C(=O)C2=O | 0.234 µM (active) | 0.283 µM (active) | 0.578 µM (active) | 0.165 µM (active) | 4.99 µM (inactive) | 0.376 µM (active) | 0.473 µM (active) | 0.188 µM (active) | 1.85 µM (inactive) | 0.154 µM (active) | 0.262 µM (active) | 0.103 µM (active) | 0.28 µM (active) | 0.173 µM (active) | 0.155 µM (active) | 0.25 µM (active) | 0.19 µM (active) | 0.149 µM (active) | 0.27 µM (active)
2 | O=C(NCCNCCNC(=O)c1cc(-c2ccccc2)nc2ccccc12)c1cc(-c2ccccc2)nc2ccccc12 | 2.84 µM (inactive) | 2.75 µM (inactive) | 2.73 µM (inactive) | 2.37 µM (inactive) | 2.16 µM (inactive) | 1.57 µM (inactive) | 1.81 µM (inactive) | 2.09 µM (inactive) | 2.7 µM (inactive) | 2.38 µM (inactive) | 2.57 µM (inactive) | 1.92 µM (inactive) | 2.14 µM (inactive) | 4.47 µM (inactive) | 1.6 µM (inactive) | 1.91 µM (inactive) | 7.91 µM (inactive) | 3.18 µM (inactive) | 1.82 µM (inactive)
3 | O=C1N2CCc3c([nH]c4ccccc34)C23CC2CCCCC12S3 (centres undefined) | > 100 µM (inactive) | > 100 µM (inactive) | > 100 µM (inactive) | > 100 µM (inactive) | 34.6 µM (inactive) | > 100 µM (inactive) | > 100 µM (inactive) | > 100 µM (inactive) | > 100 µM (inactive) | > 100 µM (inactive) | 34.5 µM (inactive) | > 100 µM (inactive) | > 100 µM (inactive) | > 100 µM (inactive) | > 100 µM (inactive) | > 100 µM (inactive) | > 100 µM (inactive) | > 100 µM (inactive) | > 100 µM (inactive)
4 | CC1CC[C@@]2(OC1)OC1C[C@H]3[C@@H]4CC[C@H]5CC(OC6OC(CO)C(OC7OC(CO)C(O)C(O)C7OC7OC(CO)C(O)C(O)C7O)C(O)C6O)CCC5(C)[C@H]4CCC3(C)C1[C@@H]2C (some centres undefined) | 2.75 µM (inactive) | 0.838 µM (active) | 1.99 µM (inactive) | 2.01 µM (inactive) | 2.21 µM (inactive) | 1.44 µM (inactive) | 0.964 µM (active) | 8.95 µM (inactive) | 1.52 µM (inactive) | 0.975 µM (active) | 1.81 µM (inactive) | 4.04 µM (inactive) | 1.54 µM (inactive) | 0.977 µM (active) | 3.34 µM (inactive) | 3.33 µM (inactive) | 1.38 µM (inactive) | 3.89 µM (inactive) | 5.2 µM (inactive)
5 | O=C1NC(=O)C(CCC(=O)c2cccc3ccccc23)C(=O)N1 | > 100 µM (inactive) | > 100 µM (inactive) | > 100 µM (inactive) | > 100 µM (inactive) | > 100 µM (inactive) | – | > 100 µM (inactive) | > 100 µM (inactive) | > 100 µM (inactive) | > 100 µM (inactive) | 85.3 µM (inactive) | – | > 100 µM (inactive) | – | > 100 µM (inactive) | > 100 µM (inactive) | > 100 µM (inactive) | > 100 µM (inactive) | > 100 µM (inactive)
6 | NCCc1nc(-c2nc(C(=O)O)cs2)cs1 | > 100 µM (inactive) | > 100 µM (inactive) | > 100 µM (inactive) | > 100 µM (inactive) | > 100 µM (inactive) | > 100 µM (inactive) | > 100 µM (inactive) | > 100 µM (inactive) | > 100 µM (inactive) | > 100 µM (inactive) | > 100 µM (inactive) | > 100 µM (inactive) | > 100 µM (inactive) | > 100 µM (inactive) | > 100 µM (inactive) | > 100 µM (inactive) | > 100 µM (inactive) | > 100 µM (inactive) | > 100 µM (inactive)
7 | COc1nc2ncc([C@@H](O)[C@H](O)CO)nc2c(=O)[nH]1 | > 100 µM (inactive) | > 100 µM (inactive) | > 100 µM (inactive) | > 100 µM (inactive) | > 100 µM (inactive) | > 100 µM (inactive) | > 100 µM (inactive) | > 100 µM (inactive) | > 100 µM (inactive) | > 100 µM (inactive) | > 100 µM (inactive) | > 100 µM (inactive) | > 100 µM (inactive) | > 100 µM (inactive) | > 100 µM (inactive) | > 100 µM (inactive) | 99.1 µM (inactive) | – | > 100 µM (inactive)
8 | O=Cc1ccc(-c2ccc(-c3ccc(CO)s3)o2)s1 | 18.6 µM (inactive) | 28.3 µM (inactive) | 16 µM (inactive) | 17.7 µM (inactive) | 1.43 µM (inactive) | 17.4 µM (inactive) | 7.83 µM (inactive) | 0.151 µM (active) | 0.104 µM (active) | 11.5 µM (inactive) | 0.239 µM (active) | 18.2 µM (inactive) | 28.7 µM (inactive) | 23.5 µM (inactive) | 20.4 µM (inactive) | 42.6 µM (inactive) | 6.24 µM (inactive) | 21.9 µM (inactive) | 17.5 µM (inactive)
9 | COc1ccc(C2C(C#N)=C(S)N(C3OC(CO)C(O)C(O)C3O)C(C)=C2C(C)=O)cc1 (centres undefined) | > 100 µM (inactive) | 73.1 µM (inactive) | > 100 µM (inactive) | > 100 µM (inactive) | 59.4 µM (inactive) | > 100 µM (inactive) | > 100 µM (inactive) | 86.1 µM (inactive) | > 100 µM (inactive) | > 100 µM (inactive) | 56.9 µM (inactive) | > 100 µM (inactive) | > 100 µM (inactive) | – | > 100 µM (inactive) | > 100 µM (inactive) | 92 µM (inactive) | > 100 µM (inactive) | 29 µM (inactive)
10 | COC(=O)C12CCC(C(F)(F)C1=O)C2(C)C (centres undefined) | > 100 µM (inactive) | > 100 µM (inactive) | > 100 µM (inactive) | > 100 µM (inactive) | – | > 100 µM (inactive) | > 100 µM (inactive) | > 100 µM (inactive) | > 100 µM (inactive) | > 100 µM (inactive) | > 100 µM (inactive) | > 100 µM (inactive) | > 100 µM (inactive) | – | > 100 µM (inactive) | > 100 µM (inactive) | > 100 µM (inactive) | > 100 µM (inactive) | > 100 µM (inactive)
11 | CCCCN1C(=O)C2Cc3c([nH]c4ccccc34)C(c3cccc(O)c3)N2C1=O (centres undefined) | 19.1 µM (inactive) | 18.5 µM (inactive) | 27.9 µM (inactive) | 17.9 µM (inactive) | 20.2 µM (inactive) | 18.5 µM (inactive) | 20.9 µM (inactive) | 17.7 µM (inactive) | 18.5 µM (inactive) | 18.6 µM (inactive) | 20.5 µM (inactive) | – | 19.8 µM (inactive) | 17.9 µM (inactive) | 18.3 µM (inactive) | 19.4 µM (inactive) | 19 µM (inactive) | 20.3 µM (inactive) | 19.2 µM (inactive)
12 | C=C(C)C1Cc2c(cc3c(c2O)c(=O)c2ccccc2n3C)O1 (centres undefined) | 2.48 µM (inactive) | 5.71 µM (inactive) | 6.3 µM (inactive) | 2.27 µM (inactive) | 1.79 µM (inactive) | 9.12 µM (inactive) | 2.61 µM (inactive) | 2.34 µM (inactive) | 10.1 µM (inactive) | > 10 µM (inactive) | 1.16 µM (inactive) | 1.63 µM (inactive) | 5.14 µM (inactive) | 17.5 µM (inactive) | 3 µM (inactive) | 1.95 µM (inactive) | 1.72 µM (inactive) | 2.36 µM (inactive) | 7.67 µM (inactive)
13 | Cc1cccc(Nc2cn(COCc3ccccc3)c(=O)[nH]c2=O)c1 | 50 µM (inactive) | > 100 µM (inactive) | 49.3 µM (inactive) | > 100 µM (inactive) | > 100 µM (inactive) | 20.8 µM (inactive) | 64.6 µM (inactive) | > 100 µM (inactive) | > 100 µM (inactive) | > 100 µM (inactive) | > 100 µM (inactive) | – | > 100 µM (inactive) | 15.3 µM (inactive) | > 100 µM (inactive) | > 100 µM (inactive) | 69.2 µM (inactive) | > 100 µM (inactive) | > 100 µM (inactive)
14 | CCCCC/C=C\C=C1\C(=O)C=C[C@@H]1C/C=C\CCCC(=O)O | 4.37 µM (inactive) | 1.84 µM (inactive) | 2.47 µM (inactive) | 2 µM (inactive) | 1.62 µM (inactive) | 2.89 µM (inactive) | 5.05 µM (inactive) | 3.94 µM (inactive) | 11.7 µM (inactive) | 6.92 µM (inactive) | 1.96 µM (inactive) | 10.2 µM (inactive) | 2.72 µM (inactive) | 1.9 µM (inactive) | 6.85 µM (inactive) | 2.67 µM (inactive) | 2.05 µM (inactive) | 7.16 µM (inactive) | –
15 | CCN(CC)CCCOc1cc2c(cc1OC)C(=O)N1CCC[C@H]1C=N2 | 41.4 µM (inactive) | 42.5 µM (inactive) | 71.1 µM (inactive) | 42.3 µM (inactive) | 37.5 µM (inactive) | 23.3 µM (inactive) | 17.8 µM (inactive) | 21.4 µM (inactive) | 29.6 µM (inactive) | 35.2 µM (inactive) | 29.2 µM (inactive) | 42.5 µM (inactive) | 29.6 µM (inactive) | 68.4 µM (inactive) | 30.2 µM (inactive) | 20 µM (inactive) | 26.9 µM (inactive) | – | 24.6 µM (inactive)
